Results reported in patent US11827646B2, “Compounds for treating spinal muscular atrophy” (Hoffmann-La Roche Inc., priority 2014, dated 2023).

Tests used:
[1] = tested on: full length SMN2 minigene mRNA (HEK293H cells stably transfected with SMN2-A minigene); test: SMN2 minigene mRNA splicing RT-qPCR assay in cultured cells; type: cell-based; conditions: Homo sapiens, HEK293-H, 24 hours, 7-point concentration curve, 1.5-fold increase relative to vehicle, read-out: EC1.5x minigene (EC1.5x concentration for production of full length SMN2 minigene mRNA)
From the text: The term “EC1.5x concentration for production of full length SMN2 minigene mRNA” (or “EC1.5x minigene”) is defined as that concentration of test compound that 1 s effective m increasing the amount of full length SMN2 minigene mRNA to a level 1.5-fold greater relative to that in vehicle-treated cells.
The reverse transcription-quantitative PCR-based (RT-qPCR) assay is used to quantify the level of the full length SMN2 minigene (referred to herein by the term “FL SMN2mini”) mRNA containing SMN2 exon 7 in a HEK293H cell line stably transfected with said minigene and treated with a test compound. Materials used and respective sources are listed below in Table 1.
The SMN2-A minigene construct was prepared as described in International Patent Application WO2009/151546A1 page 145 paragraph [00400] to page 147 paragraph [00412](incl. FIG. 1 and FIG. 3 therein).
HEK293H cells stably transfected with the SMN2-A minigene construct (10,000 cells/well) are seeded in 200 μL of cell culture medium (DMEM plus 10% FBS, with 200 μg/mL hygromycin) in 96-well flat-bottom plates and the plate is immediately swirled to ensure proper dispersal of cells and the formation of an even monolayer of cells. Cells are allowed to attach for 6 hours. Test compounds are serially diluted 3.16-fold in 100% DMSO to generate a 7-point concentration curve. A solution of test compound (1 μL, 200× in DMSO) is added to each cell-containing well and the plate is incubated for 24 hours in a cell culture incubator (37° C., 5% CO2, 100% relative humidity). 2 replicates are prepared for each test compound concentration. The cells are then lysed in the Cells-To-Ct lysis buffer and the lysate is stored at −80° C.
Full length SMN2-A minigene and GAPDH mRNA are quantified using the primers and probes referenced in Table 2. Primer SMN Forward A (SEQ ID NO.1) hybridizes to a nucleotide sequence in exon 7 (nucleotide 22 to nucleotide 40), primer SMN Reverse A (SEQ ID NO.2) hybridizes to a nucleotide sequence in the coding sequence of Firefly luciferase, SMN Probe A (SEQ ID NO.3) hybridizes to a nucleotide sequence in exon 7 (nucleotide 50 to nucleotide 54) and exon 8 (nucleotide 1 to nucleotide 21). The combination of these three oligonucleotides detects only SMN1 or SMN2 minigenes (RT-qPCR) and will not detect endogenous SMN1 or SMN2 genes.
The SMN forward and reverse primers are used at final concentrations of 0.4 μM. The SMN probe is used at a final concentration of 0.15 μM. The GAPDH primers are used at final concentrations of 0.2 μM and the probe at 0.15 μM.
The SMN2-minigene GAPDH mix (15 μL total volume) is prepared by combining 7.5 μL of 2×RT-PCR buffer, 0.4 μL of 25×RT-PCR enzyme mix, 0.75 μL of 20×GAPDH primer-probe mix, 4.0075 μL of water, 2 μL of 10-fold diluted cell lysate, 0.06 μL of 100 µM SMN forward primer, 0.06 μL of 100 μM SMN reverse primer, and 0.225 μL of 100 μM SMN probe.
PCR is carried out at the following temperatures for the indicated time: Step 1: 48° C. (15 min); Step 2: 95° C. (10 min); Step 3: 95° C. (15 sec); Step 4: 60° C. (1 min); then repeat Steps 3 and 4 for a total of 40 cycles.
Each reaction mixture contains both SMN2-A minigene and GAPDH primers/probe sets (multiplex design), allowing simultaneous measurement of the levels of two transcripts.
The increase in the abundance of the FL SMN2mini mRNA relative to that in cells treated with vehicle control is determined from real-time PCR data using a modified ΔΔCt method (as described in Livak and Schmittgen, Methods, 2001, 25:402-8). The amplification efficiency E is calculated from the slope of the amplification curve for FL SMN2mini and GAPDH individually. The abundance of FL SMN2mini and GAPDH mRNA are then calculated as (1+E)^−Ct, where Ct is the threshold value for each amplicon. The abundance of FL SMN2mini mRNA is normalized to GAPDH mRNA abundance. […]

[2] = tested on: SMN protein in SMA patient fibroblast cells (GM03813); test: SMN protein assay in cultured cells (SMN HTRF); type: cell-based; conditions: Homo sapiens, SMA Type 1 patient fibroblasts, 48 hours; for EC (1.5-fold): 7-point concentration curve, 1.5 times SMN protein vs vehicle, read-out: EC1.5x SMN protein (EC1.5x concentration for SMN protein expression); for maximal fold induction: fold increase relative to vehicle control, read-out: max. fold increase of SMN protein
From the text: The term “EC1.5x concentration for SMN protein expression” (or “EC1.5x SMN protein”) is defined as that concentration of test compound that is effective in producing 1.5 times the amount of SMN protein in an SMA patient fibroblast cell compared to the amount produced from the vehicle control.
The SMN HTRF (homogeneous time resolved fluorescence) assay is used to quantify the level of SMN protein in SMA patient fibroblast cells treated with test compounds. Materials used and respective sources are listed below in Table 4.
Cells are thawed and cultured in DMEM-10% FBS for 72 hours. Cells are trypsinized, counted and re-suspended to a concentration of 25,000 cells/mL in DMEM-10% FBS. The cell suspensions are plated at 5,000 cells per well in a 96 well microtiter plate and incubated for 3 to […]. Test compounds are serially diluted 3.16-fold in 100% DMSO to generate a 7-point concentration curve. 1 μL of test compound solution is transferred to cell-containing wells and cells are incubated for 48 hours in a cell culture incubator (37° C., 5% CO2, […]). Triplicate samples are set up for each test compound concentration. After 48 hours, the supernatant is removed from the wells and 25 μL of the RIPA lysis buffer, containing protease inhibitors, is added to the wells and incubated with shaking at room temperature for 1 hour. 25 μL of the diluent is added and then 35 μL of the resulting lysate is transferred to a 384-well plate, where each well contains 5 μL of the antibody solution (1:100 dilution of anti-SMN d2 and anti-SMN kryptate in SMN reconstitution buffer). The plate is centrifuged for 1 minute to bring the solution to the bottom of the wells, then incubated overnight at room temperature. Fluorescence for each well of the plate at 665 nm and 620 nm is measured on an EnVision multilabel plate reader (Perkin-Elmer).
The normalized fluorescence signal is calculated for each sample, Blank and vehicle control well by dividing the signal at 665 nm by the signal at 620 nm. Normalizing the signal accounts for possible fluorescence quenching due to the matrix effect of the lysate. The ΔF value (a measurement of SMN protein abundance as a percent value) for each sample well is calculated by subtracting the normalized average fluorescence for the Blank control wells from the normalized fluorescence for each sample well, then dividing this difference by the normalized average fluorescence for the Blank control wells and multiplying the resulting value by 100. The ΔF value for each sample well represents the SMN protein abundance from test compound-treated samples. The ΔF value for each sample well is divided by the ΔF value for the vehicle control wells to calculate the fold increase in SMN protein abundance relative to the vehicle control. Table 5 provides EC1.5x concentrations for SMN protein expression that was obtained from the 7-point concentration data generated according to the above procedure for particular compounds of the present invention.
Table 6 provides the maximum fold increase of SMN protein that was obtained from the 7-point concentration data generated according to the above procedure for particular compounds of the present invention

Structure (SMILES)	EC (1.5-fold) [1] [µM]	EC (1.5-fold) [2] [µM]	maximal fold induction [2]
Cc1cn2nc(-c3cc(=O)n4cc(N5CCN(C)CC5)ccc4n3)ccc2n1 [Example 1, 2-(2-methylimidazo[1,2-b]pyridazin-6-yl)-7-(4-methylpiperazin-1-yl)pyrido[1,2-a]pyrimidin-4-one]	0.0035	0.0108	1.84
Cc1cn2nc(-c3cc(=O)n4cc(N5CCN6CCC[C@@H]6C5)ccc4n3)ccc2n1 [Example 2, 7-[(8aR)-3,4,6,7,8,8a-hexahydro-1H-pyrrolo[1,2-a]pyrazin-2-yl]-2-(2-methylimidazo[1,2-b]pyridazin-6-yl)pyrido[1,2-a]pyrimidin-4-one]	0.0038	0.0198	1.76
Cc1cn2nc(-c3cc(=O)n4cc(N5CCN6CCC[C@H]6C5)ccc4n3)cc(C)c2n1 [Example 3, 7-[(8aS)-3,4,6,7,8,8a-hexahydro-1H-pyrrolo[1,2-a]pyrazin-2-yl]-2-(2,8-dimethylimidazo[1,2-b]pyridazin-6-yl)pyrido[1,2-a]pyrimidin-4-one]	0.0032	0.0256	1.81
Cc1cn2nc(-c3cc(=O)n4cc(N5CCN6CCC[C@@H]6C5)ccc4n3)cc(C)c2n1 [Example 4, 7-[(8aR)-3,4,6,7,8,8a-hexahydro-1H-pyrrolo[1,2-a]pyrazin-2-yl]-2-(2,8-dimethylimidazo[1,2-b]pyridazin-6-yl)pyrido[1,2-a]pyrimidin-4-one]	0.0018	0.0157	1.76
Cc1cn2nc(-c3cc(=O)n4cc(N5CCN6CCC[C@@]6(C)C5)ccc4n3)cc(C)c2n1 [Example 5, 7-[(8aS)-8a-methyl-1,3,4,6,7,8-hexahydropyrrolo[1,2-a]pyrazin-2-yl]-2-(2,8-dimethylimidazo[1,2-b]pyridazin-6-yl)pyrido[1,2-a]pyrimidin-4-one]	0.0006	0.0041	1.71
Cc1cn2nc(-c3cc(=O)n4cc(N5CCN6CCC[C@]6(C)C5)ccc4n3)cc(C)c2n1 [Example 6, 7-[(8aR)-8a-methyl-1,3,4,6,7,8-hexahydropyrrolo[1,2-a]pyrazin-2-yl]-2-(2,8-dimethylimidazo[1,2-b]pyridazin-6-yl)pyrido[1,2-a]pyrimidin-4-one]	0.0028	0.011	1.84
Cc1cn2nc(-c3cc(=O)n4cc(N5C[C@@H](C)N[C@@H](C)C5)ccc4n3)cc(C)c2n1 [Example 7, 2-(2,8-dimethylimidazo[1,2-b]pyridazin-6-yl)-7-[(3S,5R)-3,5-dimethylpiperazin-1-yl]pyrido[1,2-a]pyrimidin-4-one]	0.0037	0.0155	1.76
Cc1cn2nc(-c3cc(=O)n4cc(N5CCN[C@@H](C)C5)ccc4n3)cc(C)c2n1 [Example 8, 2-(2,8-dimethylimidazo[1,2-b]pyridazin-6-yl)-7-[(3S)-3-methylpiperazin-1-yl]pyrido[1,2-a]pyrimidin-4-one]	0.0003	0.0059	1.85
Cc1cn2nc(-c3cc(=O)n4cc(N5CCN[C@H](C)C5)ccc4n3)cc(C)c2n1 [Example 9, 2-(2,8-dimethylimidazo[1,2-b]pyridazin-6-yl)-7-[(3R)-3-methylpiperazin-1-yl]pyrido[1,2-a]pyrimidin-4-one]	0.0001	0.0025	1.92
Cc1cn2nc(-c3cc(=O)n4cc(N5CCCNCC5)ccc4n3)cc(C)c2n1 [Example 10, 7-(1,4-diazepan-1-yl)-2-(2,8-dimethylimidazo[1,2-b]pyridazin-6-yl)pyrido[1,2-a]pyrimidin-4-one]	0.0064	0.0228	1.95
Cc1cn2nc(-c3cc(=O)n4cc(N5CCN[C@@H](C)C5)ccc4n3)ccc2n1 [Example 11, 2-(2-methylimidazo[1,2-b]pyridazin-6-yl)-7-[(3S)-3-methylpiperazin-1-yl]pyrido[1,2-a]pyrimidin-4-one]	0.0014	0.007	1.9
Cc1cn2nc(-c3cc(=O)n4cc(N5CCN[C@H](C)C5)ccc4n3)ccc2n1 [Example 12, 2-(2-methylimidazo[1,2-b]pyridazin-6-yl)-7-[(3R)-3-methylpiperazin-1-yl]pyrido[1,2-a]pyrimidin-4-one]	0.0012	0.0075	1.77
Cc1cn2nc(-c3cc(=O)n4cc(N5CCCNCC5)ccc4n3)ccc2n1 [Example 13, 7-(1,4-diazepan-1-yl)-2-(2-methylimidazo[1,2-b]pyridazin-6-yl)pyrido[1,2-a]pyrimidin-4-one]	0.005	0.003	1.91
